Assay results as given in US20090208455A1, “Method for Treating Polyglutamine Expansion Neurodegenerative Diseases” (INSERM (Institut National de la Sante et de la Recherche …, priority 2006, published 2009).
Entries after “also recorded” stand apart in the source; their conditions may differ. Peptide text beside a SMILES is read from it. * marks the point of attachment. Cbz = O=C(OCc1ccccc1)*

Key:
mutant ATXN7 aggregates = assay: Filter retardation assay of SDS-insoluble material in COS-7 cells; format: cell-based; conditions: 0.25 to 2 μM cadmium, filter assay on pellet fraction
Method: Cell culture, transfections, MG132, INF and cadmium treatments: COS-7 cells were maintained in DMEM (Invitrogen) supplemented with 5% FBS, and penicillin-streptomycin (100 UI/ml; 100 μg/ml). Cell lines were transfected with Lipofectamine-PLUS reagents (Invitrogen) as prescribed. […] Recombinant human Interferon beta (Hu-IFN-b) is obtained from human fibroblast mRNA expressed in E. Coli. Its molecular weight is approximately 20 kDa. Recombinant human Interferon beta was supplied as a solution at 1×10^6 units/ml in PBS (phosphate buffered saline) containing 0.1% BSA (bovine serum albumin) and 10% glycerol. It was purchased from Sigma-Aldrich. Recombinant human Interferon beta (2000 UI/ml) was added to the culture medium after plating and during transfection. Cadmium chloride (Cadmium chloride hemi pentahydrate, Sigma Aldrich) (from 0.25 μM to 2 μM) was added during transfection. […]
Western blot and filter retardation assay: Cells were harvested in PBS, pelleted and lysed 30 min on ice in lysis buffer containing 50 mM Tris pH 8.8, 100 mM NaCl, 5 mM MgCl2, 0.5% NP40, 1 mM EDTA and 250 UI/ml benzonase (Merck) supplemented with a cocktail of protease inhibitors (Complete and Pefabloc, Roche). […] Supernatants (30 μg protein) were analyzed by Western blot. […] Protein concentrations (supernatant and pellet) were determined by Bio-Rad assay. […]

endogenous PML bodies = assay: Immunofluorescence of endogenous PML bodies in cadmium-treated cells expressing FL-74Q; format: cell-based; conditions: 2 μM cadmium
Method: Cell culture, transfections, MG132, INF and cadmium treatments: COS-7 cells were maintained in DMEM (Invitrogen) supplemented with 5% FBS, and penicillin-streptomycin (100 UI/ml; 100 μg/ml). Cell lines were transfected with Lipofectamine-PLUS reagents (Invitrogen) as prescribed. Unless otherwise specified, cells were harvested or analyzed by immunofluorescence 40-45 h post-transfection. β-INF. Recombinant human Interferon beta (Hu-IFN-b) is obtained from human fibroblast mRNA expressed in E. Coli. Its molecular weight is approximately 20 kDa. Recombinant human Interferon beta was supplied as a solution at 1×10^6 units/ml in PBS (phosphate buffered saline) containing 0.1% BSA (bovine serum albumin) and 10% glycerol. It was purchased from Sigma-Aldrich. Recombinant human Interferon beta (2000 UI/ml) was added to the culture medium after plating and during transfection. Cadmium chloride (Cadmium chloride hemi pentahydrate, Sigma Aldrich) (from 0.25 μM to 2 μM) was added during transfection. For proteasome inhibition, 5 μM MG132 was applied for 12 h, 25 h post-transfection. Cultures of post-mitotic neurons were prepared from the cortex of embryonic day 16 Wistar rats. Cells were extracted from the embryos and cultured with 1 μM MK801. Glial cell proliferation was stopped by adding 1 μM cytosine arabinoside after 3 h. […]

SCA7 KI mice [1] = assay: Life time of SCA7 knock-in mice; format: in vivo
Excerpt: (§1) The inventors use the Spinocerebellar ataxia 7 (SCA7) knock-in mouse model developed in Huda Zhoghbi's lab (Yoo et al, 2003). This mouse model SCAT 266Q/5Q reproduces features of an infantile SCAT disease. The phenotype begins at 5 weeks of age with weight loss and then visual impairment. At about 8 weeks their locomotor functions are affected, and by 13-14 weeks of age the ataxic phenotype is severe with tremor, gait ataxia, muscular mass loss, kyphosis. The mice die between 14 and 19 weeks of age. In this severely affected mice model the inventors undertook to test a treatment with murine beta-IFN (Sigma).
(§2) Protocol: 3 injections (intraperitoneally) per week, each of 10.000 Units murine beta IFN per mouse (from Sigma). Starting at 5 weeks of age, and during 10 weeks or more, until the animals die.

[2] = system: wild type mice (C57 black6); assay: Toxicity of beta-IFN injection protocol in wild type mice; format: in vivo; conditions: 10.000 Units per mouse, 3 injections per week intraperitoneally, 12 weeks, versus saline
Excerpt: as §2
The inventors first tested the toxicity of such a treatment, as no publication described a treatment of young animals with IFN. In adult mice affected by multiple sclerosis and receiving injections of beta-IFN, the doses were 10.000 Units per mouse, over 14 weeks. The inventors chose to use the same doses and tested toxicity of the protocol in wild type mice of the same strain (C57 black6) than the KI mice, during 12 weeks. […] The inventors concluded that the dose used was not toxic, and decided to use 10.000 Units, 3 times a week, in the SCAT mouse model.

SCA7 KI mice [3] = assay: Locotronic test in SCA7 knock-in mice; format: in vivo; conditions: treated KI versus untreated KI
Method: Mice have been subjected to crossing the Locotronic apparatus, each week, 3 sessions with 15 min pause between sessions. FIG. 7A indicates the time in seconds for crossing the Locotronic and FIG. 7B indicates the numbers of errors (front paws, rear paws) made by the mice during the task. A mean value was calculated for the 3 sessions, for each group of animals.
as §1, with “(Sigma). […]” for “(Sigma).”
The Locotronic is designed to evaluated fine motor coordination in mice crossing the apparatus. […] On the side of the apparatus there are infra red sensors which measure errors made with front paws and rear paws (differentially scored). […] All the errors detected by the sensors are saved in a file as well as the time needed for crossing. […]

SCA7 KI mice [4] = assay: Beam walking test in SCA7 knock-in mice; format: in vivo; conditions: 10.000 Units i.p. 3 times a week from 5 weeks of age; effect from 12 weeks of age, p inf to 0.005
Method: This test was performed each week, with 3 sessions per animal (maximal time 1 min.). The number of errors made on the wooden beam by each mouse, and the traveled total distance were noted. A mean of the 3 assays was calculated.
as §1
Protocol: 3 injections (intraperitoneally) per week, each of 10.000 Units murine beta IFN per mouse (from Sigma). Starting at 5 weeks of age, and during 10 weeks or more, until the animals die. […]
The mouse is placed at the end of the beam, at segment number 1 and the task is to walk towards the box placed at the other end. […] During the task, the inventors carefully monitored the numbers of errors done with the paws on the beam (front or rear paws). The ratio number of errors/distance traveled (EID) is calculated for each animal.

proteasome = assay: Proteasome inhibition by MG132 in COS-7 cells, Western blot of ATXN7; format: cell-based
Method: Cell culture, transfections, MG132, INF and cadmium treatments: COS-7 cells were maintained in DMEM (Invitrogen) supplemented with 5% FBS, and penicillin-streptomycin (100 UI/ml; 100 μg/ml). Cell lines were transfected with Lipofectamine-PLUS reagents (Invitrogen) as prescribed. […] Recombinant human Interferon beta (Hu-IFN-b) is obtained from human fibroblast mRNA expressed in E. Coli. Its molecular weight is approximately 20 kDa. Recombinant human Interferon beta was supplied as a solution at 1×10^6 units/ml in PBS (phosphate buffered saline) containing 0.1% BSA (bovine serum albumin) and 10% glycerol. It was purchased from Sigma-Aldrich. Recombinant human Interferon beta (2000 UI/ml) was added to the culture medium after plating and during transfection. Cadmium chloride (Cadmium chloride hemi pentahydrate, Sigma Aldrich) (from 0.25 μM to 2 μM) was added during transfection. For proteasome inhibition, 5 μM MG132 was applied for 12 h, 25 h post-transfection. Cultures of post-mitotic neurons were prepared from the cortex of embryonic day 16 Wistar rats. Cells were extracted from the embryos and cultured with 1 μM MK801. Glial cell proliferation was stopped by adding 1 μM cytosine arabinoside after 3 h. Primary cultures of cortical neurons were transfected 96 h after plating using Lipofectamine 2000 reagent (Invitrogen) according to the manufacturer's instructions.
Western blot and filter retardation assay: Cells were harvested in PBS, pelleted and lysed 30 min on ice in lysis buffer containing 50 mM Tris pH 8.8, 100 mM NaCl, 5 mM MgCl2, 0.5% NP40, 1 mM EDTA and 250 UI/ml benzonase (Merck) supplemented with a cocktail of protease inhibitors (Complete and Pefabloc, Roche). Total extracts were centrifuged at 13000 rpm for 10 min at 4° C. to separate soluble proteins from aggregates and membranes. Supernatants (30 μg protein) were analyzed by Western blot. Pellets were washed with PBS and further incubated 30 min on ice in a pellet buffer containing 20 mM Tris pH 8.0, 15 mM MgCl2 and 250 UI/ml benzonase. Protein concentrations (supernatant and pellet) were determined by Bio-Rad assay. […]

[5] = 5 μM MG132, COS-7 cells, Western blot

Question: `O.O.O.O.O.[Cd+2].[Cd+2].[Cl-].[Cl-].[Cl-].[Cl-]` [cadmium, Cadmium chloride hemi pentahydrate] was tested. Which “aggregation of mutant ATXN7” value (mutant ATXN7 aggregates) did it give?
Answer: Its value is “dose-dependent”.

Question: And the “endogenous PML bodies” value (endogenous PML bodies)?
Answer: Its value is “totally disrupted”.

Question: With “beta-IFN: murine beta-IFN (Sigma) injected intraperitoneally in mice” as the compound, how does the mean life time (SCA7 KI mice [1]; 10.000 Units i.p. 3 times a week from 5 weeks of age, untreated SCA7 KI 15.1 weeks) read?
Answer: The mean life time was 16.25 weeks.

Question: What about the “extension of the life time” value (SCA7 KI mice [1]; treated versus untreated SCA7 KI mice) of the same compound?
Answer: The value was 7.5%.

Question: What about the adverse effects [2] of the same compound?
Answer: The adverse effects was “did not observe adverse effects”.

Question: And the “time for crossing the Locotronic” value (SCA7 KI mice [3]; 10.000 Units i.p. 3 times a week from 5 weeks of age)?
Answer: Its value is “slower than the beta-interferon treated KI”.

Question: What about the “number of errors in the Locotronic” value (SCA7 KI mice [3]; 10.000 Units i.p. 3 times a week, at 14 weeks of age) of the same compound?
Answer: The value was “tendency for the treated KI to make less errors”.

Question: And the “locomotor coordination (ratio number of errors/traveled distance)” value (SCA7 KI mice [4])?
Answer: The value was “improves the locomotor coordination”.

Question: Which “amount of mutant ATXN7 FL-74Q coexpressed with PML IV” value (proteasome; [5]) does the source give for `CC(C)C[C@@H](C=O)NC(=O)[C@H](CC(C)C)NC(=O)[C@H](CC(C)C)NC(=O)OCc1ccccc1` [MG132] (Cbz-Leu-Leu-Leu-aldehyde) here?
Answer: Its value is “significantly increases; also recorded: increased”.

Question: And the “amount of mutant ATXN7 FL-74Q expressed alone (absence of PML IV)” value (proteasome; [5])?
Answer: The value was “significantly increases; also recorded: increased”.

Question: What about the “PML-dependent degradation of ATXN7 induced by β-INF” value (proteasome; MG132 with β-INF treatment, COS-7 cells) of the same compound?
Answer: Its value is “inhibited”.
